Tests used:
[1] = test system: EA#14.3K31 non-labelled (DNA, aptamer) ATTCAATTTGAGGCGGGTGGGTGGGTTGAAT; experiment: dye fluorescence melting profile, qualitative; conditions: 100 mM NaCl; 20 mM TRIS, 0.02% Tween 20, pH 7.6; 10x dye; 0.5-4 μM aptamer
[2] = test system: EA#14.3K42 non-labelled (DNA, aptamer) ATACCAGCTTATTCAATTTGAGGCGGGTGGGTGGGTTGAATA; experiment: dye fluorescence melting profile, qualitative; conditions: 100 mM NaCl; 20 mM TRIS, 0.02% Tween 20, pH 7.6; 10x dye; 0.5-4 μM aptamer

binding [1]: yes
binding [2]: yes
SMILES: CCCN(CCCN(C)C)c1cc(C=C2Sc3ccccc3N2C)c2ccccc2[n+]1-c1ccccc1

— article PMC6506705 (2019)
